As usually defined, the IC50 is the point on the concentration scale where inhibition reaches its midpoint. The CC50 is the concentration giving 50% cytotoxicity.

The subject of assay [1] is Jurkat. Description: Inhibition of TPA/ionomycin-stimulated human TNFalpha promoter expression in human Jurkat T cells by luciferase reporter gene assay. In kind it is functional, cell-based.
Assay [2] is described as follows: Cytotoxicity against human COLO320 cells after 48 hrs. In kind it is functional. The note with it: COLO 320, 48 h.
Assay [3] deals with HeLa. Put plainly: Cytotoxicity against human HeLa S3 cells after 48 hrs. In kind it is functional.
For assay [4], the system named is HepG2. Put plainly: Cytotoxicity against human HepG2 cells after 48 hrs. In kind it is functional. The note with it: HepG2, 48 h.
Assay [5] deals with RAW. Description: Cytotoxicity against mouse RAW […] cells after 48 hrs. In kind it is functional.
The test system of a further assay is HL-60. Put plainly: Cytotoxicity against human HL60 cells after 48 hrs. The note with it: HL-60, 48 h. In kind it is functional.
In assay [6] the test system is Jurkat. Description: Cytotoxicity against human Jurkat cells after 48 hrs. In kind it is functional.
Assay [7] has as its system U-937. Description: Cytotoxicity against human U937 cells after 48 hrs. In kind it is functional. The conditions noted are these: U-937, 48 h.
The test system of assay [8] is HeLa. Description: Inhibition of TPA-stimulated AP1 gene promoter expression in human HeLa S3 cells by SEAP reporter gene assay. In kind it is functional, cell-based. (Reporter assays use an easily measured gene product as a stand-in for the process of interest.)
For assay [9], the system named is U-937. Description: Inhibition of TPA-stimulated TNFalpha production in human U937 cells. In kind it is functional, cell-based.
In assay [10] the test system is HeLa. Description: Inhibition of IFN-alpha-stimulated GAS/ISRE gene promoter expression in human HeLa S3 cells by SEAP reporter gene assay. In kind it is functional, cell-based.
Assay [11] concerns Jurkat. Description: Inhibition of TPA-stimulated NF-AT/AP1 gene promoter expression in human Jurkat cells by SEAP reporter gene assay. In kind it is functional, cell-based.
The test system of assay [12] is HepG2. Put plainly: Inhibition of IL6-stimulated IL6 gene promoter expression in human HepG2 cells by SEAP reporter gene assay. In kind it is functional, cell-based.
Assay [13] concerns Jurkat. Put plainly: Inhibition of TPA-stimulated NF-kappaB gene promoter expression in human Jurkat cells by SEAP reporter gene assay. In kind it is functional, cell-based.
Assay [14] concerns Jurkat. Put plainly: Inhibition of TPA-stimulated COX2 gene promoter expression in human Jurkat cells by luciferase reporter gene assay. In kind it is functional, cell-based.
The target in assay [15] is Mitogen-activated protein kinase 3 (Homo sapiens) (UniProt P27361). Description: Inhibition of TPA/ionomycin-induced ERK1 phosphorylation in human Jurkat cells upto 10 ug/ml by Western blotting. In kind it is cell-based.
Sequence of Mitogen-activated protein kinase 3 (Homo sapiens) (P27361 whole entry): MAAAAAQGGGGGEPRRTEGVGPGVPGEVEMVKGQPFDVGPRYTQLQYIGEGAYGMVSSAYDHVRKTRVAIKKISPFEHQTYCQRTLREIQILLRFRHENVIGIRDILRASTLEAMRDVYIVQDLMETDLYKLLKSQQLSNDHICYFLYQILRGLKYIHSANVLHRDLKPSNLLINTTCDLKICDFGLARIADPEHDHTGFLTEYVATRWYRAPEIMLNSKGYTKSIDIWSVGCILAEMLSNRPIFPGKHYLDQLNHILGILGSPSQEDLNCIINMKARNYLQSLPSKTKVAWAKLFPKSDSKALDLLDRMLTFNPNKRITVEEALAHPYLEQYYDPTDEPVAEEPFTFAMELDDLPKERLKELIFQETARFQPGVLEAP
Assay [16] concerns the target Mitogen-activated protein kinase 1 (Homo sapiens) (UniProt P28482). Put plainly: Inhibition of TPA/ionomycin-induced ERK2 phosphorylation in human Jurkat cells upto 10 ug/ml by Western blotting. In kind it is cell-based. On the technique in general: A western blot detects proteins with antibodies after separation by electrophoresis.
Assay [17] deals with MAP kinase p38 (Homo sapiens) (UniProt O15264+Q15759+Q16539+P53778). Description: Inhibition of TPA/ionomycin-induced p38 kinase phosphorylation in human Jurkat cells upto 10 ug/ml by Western blotting. In kind it is cell-based.
Assay [18] relates to RAW. Description: Inhibition of LPS/IFN-gamma-induced COX2 gene expression in mouse RAW 264.7 cells. In kind it is functional, cell-based.
In assay [19] the test system is RAW. Put plainly: Inhibition of LPS/IFN-gamma-induced iNOS gene expression in mouse RAW 264.7 cells. In kind it is functional, cell-based.
Assay [20] relates to Jurkat. Put plainly: Inhibition of TPA/ionomycin-stimulated human TNFalpha promoter expression in human Jurkat T cells at 55 uM by luciferase reporter gene assay relative to control. In kind it is functional. Also noted: scale not given: the % may be the effect or the level left.

Values after ≈ are worked out from the molar mass of the structure shown. Active and inactive are the calls of the source. The rule behind the calls is not given here.

Sequence of Mitogen-activated protein kinase 1 (Homo sapiens) (P28482 whole entry): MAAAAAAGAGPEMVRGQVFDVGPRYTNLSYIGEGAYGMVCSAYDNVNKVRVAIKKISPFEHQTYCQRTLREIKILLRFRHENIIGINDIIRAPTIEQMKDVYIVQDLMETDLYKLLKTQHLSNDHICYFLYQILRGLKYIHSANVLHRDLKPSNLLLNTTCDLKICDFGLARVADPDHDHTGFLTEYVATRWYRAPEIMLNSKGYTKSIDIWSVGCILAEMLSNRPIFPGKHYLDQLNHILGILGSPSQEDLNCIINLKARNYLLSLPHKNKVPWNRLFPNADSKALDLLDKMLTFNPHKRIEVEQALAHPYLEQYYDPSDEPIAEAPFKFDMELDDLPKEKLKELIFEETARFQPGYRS

For the molecule `CCCCCCCCCCCC(=O)C(=O)/C=C/C(=O)O`, the outcome with Jurkat [1] was inactive.
On to `CCCCCCCCCCCC(=O)[C@]1(O)C[C@H](C(=O)O)C(C(=O)OCC)=C2N(Cc3ccccc3)CCN21`, for which, in the assay with Jurkat [1], the IC50 was 9.5 µM. Besides, the CC50 in assay [2] was 10 µg/mL (≈ 18.9 µM); in the assay on HeLa [3], 25 µg/mL (≈ 47.3 µM); in the assay on HepG2 [4] it was more than 50 µg/mL; in the assay on RAW [5] it was 10 µg/mL (≈ 18.9 µM); in the assay with HL-60, 10 µg/mL (≈ 18.9 µM); with Jurkat [6] it was 10 µg/mL (≈ 18.9 µM). Further, it took 10 µg/mL (≈ 18.9 µM) to reach half-maximal cytotoxicity in the assay with U-937 [7] (CC50). The CC90 in [2] was found to be 50 µg/mL (≈ 94.6 µM); in the assay on RAW [5], 50 µg/mL (≈ 94.6 µM); with HL-60 it was 50 µg/mL (≈ 94.6 µM); in the assay with Jurkat [6], 50 µg/mL (≈ 94.6 µM); in the assay on U-937 [7], 25 µg/mL (≈ 47.3 µM).
As for `CCCCCCCCCCCC(=O)[C@]1(O)C[C@H](C(=O)OC)C(C(=O)OCC)=C2N(Cc3ccccc3)CCN21`, the IC50 was found to be 4.6 µM with HeLa [8]; 3.6 µM with Jurkat [1]; 4.6 µM with U-937 [9]; 4.6 µM in the assay on HeLa [10]; 4.6 µM in the assay with Jurkat [11]; 18.4 µM in the assay with HepG2 [12]. Further, the IC50 with Jurkat [13] and in the assay with Jurkat [14] was 4.6 µM throughout. Besides, the CC50 in assay [2] stood at 10 µg/mL (≈ 18.4 µM); in the assay on HeLa [3] it was 10 µg/mL (≈ 18.4 µM); in the assay on HepG2 [4], 50 µg/mL (≈ 92.1 µM); in the assay on RAW [5], 5 µg/mL (≈ 9.21 µM); in the assay on HL-60, 10 µg/mL (≈ 18.4 µM); in the assay with Jurkat [6], 10 µg/mL (≈ 18.4 µM). In the assay with U-937 [7], the CC50 is 10 µg/mL (≈ 18.4 µM). Further, the CC90 turned out to be 50 µg/mL (≈ 92.1 µM) in assay [2]; 25 µg/mL (≈ 46.1 µM) with HeLa [3]; 25 µg/mL (≈ 46.1 µM) in the assay on RAW [5]; 25 µg/mL (≈ 46.1 µM) in the assay with HL-60; 50 µg/mL (≈ 92.1 µM) in the assay on Jurkat [6]; 25 µg/mL (≈ 46.1 µM) in the assay with U-937 [7]. Besides, the outcome (in assay [15]; in assay [16]; in [17]; in the assay on RAW [18]; with RAW [19]) was inactive.
In the assay with U-937 [9], `CCOC(=O)/C=C1\NCCN1Cc1ccccc1` returned an IC50 of 10 µg/mL.
Molecule `CCCCCCCCCCCC(=O)[C@]1(O)C[C@H](C(=O)OCC)C(C(=O)OCC)=C2N(Cc3ccccc3)CCN21` had an IC50 in the assay on Jurkat [1] of 9.5 µM. In addition, the Activity in the assay on Jurkat [20] came out at 25%. Moreover, the CC50 in assay [2] was 10 µg/mL (≈ 18 µM); in the assay with HeLa [3], 10 µg/mL (≈ 18 µM); with HepG2 [4] it was 50 µg/mL (≈ 89.8 µM); in the assay on RAW [5] it was 5 µg/mL (≈ 8.98 µM); in the assay on HL-60, 10 µg/mL (≈ 18 µM); in the assay on Jurkat [6], 10 µg/mL (≈ 18 µM). The molecule also gave a CC50 in the assay on U-937 [7] of 10 µg/mL (≈ 18 µM). Besides, the CC90 in assay [2] is more than 50 µg/mL; in the assay on HeLa [3] it was 50 µg/mL (≈ 89.8 µM); with RAW [5] it was 25 µg/mL (≈ 44.9 µM); in the assay with HL-60, 25 µg/mL (≈ 44.9 µM); in the assay on Jurkat [6], 50 µg/mL (≈ 89.8 µM); in the assay with U-937 [7], 25 µg/mL (≈ 44.9 µM).

For the origin of these results see ChEMBL document CHEMBL1143128, “Imidazo[1,2-a]pyridine derivatives as inhibitors of TNF-alpha expression in T cells” (Bioorg Med Chem, 2008).
